We go through 20 compounds from paper PMC6100240, “Discovery of 2-(4-Substituted-piperidin/piperazine-1-yl)-N-(5-cyclopropyl-1H-pyrazol-3-yl)-quinazoline-2,4-diamines as PAK4 Inhibitors with Potent A549 Cell Proliferation, Migration, and Invasion Inhibition Activity” (Molecules : A Journal of Synthetic Chemistry and Natural …, 2018).

Usually IC50 stands for the point on the concentration scale where inhibition reaches its midpoint. A high value points to weaker potency. Broadly, the melting point is the temperature of the solid-liquid transition.

Data set [1] has as its target T1, PAK4 (Homo sapiens, UniProt O96013).
T1 construct: purchased Sigma-Aldrich
Put plainly: PAK4 HTRF kinase assay. The format is biochemical. (In general: Time-resolved FRET reads energy transfer from a long-lived donor to a nearby acceptor.)

Data set [2] has as its system human gastric cancer cells. Also noted: method as in PMID 22085492. Particulars: cited from earlier work.
In data set [3] the test system is HT1080. In words: MTT cell proliferation assay, HT1080. Particulars: for IC50: Homo sapiens, HT-1080, 50% cell growth inhibition after 24 h of drug exposure, MTT assay; for Activity against HT1080 (off-target check): growth not dependent on PAK4. The format is cell-based, human. How it is done:
(§1) Meanwhile, the tumor cell line HT1080, whose growth is not dependent on PAK4, was used to test the potential off-target effects of the potent PAK4 inhibitors.
(§2) The human pulmonary carcinoma cell line A549 and the human fibrosarcoma cell line HT1080 were cultured in RPMI-1640 medium containing 10% fetal bovine serum (FBS), at 37 °C in a humidified atmosphere containing 5% CO2.
(§3) The in vitro antiproliferative activity of some of the target compounds was determined by the MTT assay (Amresco, Seattle, WA, USA). A suspension of 100 µL human cancer cells (5 × 10^4/mL) was plated in a 96-well cell culture plate and incubated with 5% CO2 at 37 °C for 24 h. Then cells were exposed to various concentrations of compounds and further cultured for 24 h. After that, MTT was added and absorbance was measured at 490 nm using a EL × 800 microplate reader (BioTek, Winooski, VT, USA). Dose-response curves were plotted to determine the IC50 values using GraphPad Prism 5.0. Each IC50 value was expressed as mean ± standard deviation.
For orientation: Formazan colour is commonly taken as a measure of viable cells.

Data set [4] concerns A549 cell line. Put plainly: MTT cell proliferation assay, A549. Particulars: Homo sapiens, 50% cell growth inhibition after 24 h of drug exposure. The format is cell-based. How it is done:
as §1, §2, §3

For data set [5], the system named is A549 cells. Put plainly: Matrigel cell invasion assay. Particulars: A549, Matrigel chamber, 24 h. The format is cell-based, human. The procedure: (§4) We next examined the effects of compound 8d on the cycle progression of A549. Cells were treated with compound 8d at varying concentrations (1.0, 3.0, 9.0 μM) and vehicle (dimethyl sulfoxide−DMSO) for 24 h, and subjected to flow cytometry analysis to determine the distribution of cells in various phases of the cell cycle. […] PAK4 activity is involved in cytoskeleton dynamics and cancer cell migration and invasion; therefore, the inhibitory effect of 8d on A549 cell migration and invasion were analyzed.
(§5) Cell migration assays were evaluated in transwell chambers (Corning Incorporated, Corning, NY, USA). Cell invasion assays were evaluated in Matrigel invasion chambers (Becton-Dickinson). First, 0.5 × 10^5 tumor cells were plated in the top chamber with RPMI-1640 medium without FBS. Test compound was added to the bottom chamber with 500 µL medium containing 20% FBS. After incubation for 24 h at 37 °C, the cells were fixed in 100% methanol and stained with 0.1% crystal violet, then washed with PBS; the cells that had not migrated from the top surface of the filters were removed with cotton. Migrated cells were quantified by counting them in three randomly selected fields on the diameter under a microscope at 200× magnification

Data set [6] deals with A549 cells. Put plainly: Transwell cell migration assay. The format is cell-based, human. Conditions: 24 h. The procedure: as §4, §5

SMILES strings stand for the structures.

T1 sequence (O96013 whole entry): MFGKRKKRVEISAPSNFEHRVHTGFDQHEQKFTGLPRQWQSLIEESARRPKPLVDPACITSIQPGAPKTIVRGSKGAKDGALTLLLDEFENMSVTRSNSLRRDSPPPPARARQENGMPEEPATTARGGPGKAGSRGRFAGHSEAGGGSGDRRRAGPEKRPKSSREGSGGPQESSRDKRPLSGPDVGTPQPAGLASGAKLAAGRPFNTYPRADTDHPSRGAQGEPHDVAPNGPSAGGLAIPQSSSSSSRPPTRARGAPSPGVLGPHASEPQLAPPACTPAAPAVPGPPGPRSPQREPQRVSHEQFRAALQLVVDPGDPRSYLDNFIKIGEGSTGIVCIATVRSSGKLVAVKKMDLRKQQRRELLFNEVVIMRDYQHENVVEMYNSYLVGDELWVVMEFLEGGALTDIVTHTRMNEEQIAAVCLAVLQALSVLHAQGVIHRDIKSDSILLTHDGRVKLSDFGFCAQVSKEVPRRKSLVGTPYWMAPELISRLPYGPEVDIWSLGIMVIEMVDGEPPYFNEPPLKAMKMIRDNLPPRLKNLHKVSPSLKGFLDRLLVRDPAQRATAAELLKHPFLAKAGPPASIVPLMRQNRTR

`FC(F)(F)c1ccc(N2CCN(c3nc(Nc4cc(C5CC5)[nH]n4)c4cc(Cl)ccc4n3)CC2)cc1` [Compound 7d, 6-Chloro-N-(5-cyclopropyl-1H-pyrazol-3-yl)-2-(4-(4-(trifluoromethyl)phenyl)piperazin-1-yl)quinazolin-4-amine]: the melting point was 256.4 to 257.8 °C. In addition, the midpoint of inhibition in data set [1], the IC50, lay at 650 nM.
For `Clc1ccc2nc(N3CCN(c4ccccn4)CC3)nc(Nc3cc(C4CC4)[nH]n3)c2c1` [Compound 8a, 6-Chloro-N-(5-cyclopropyl-1H-pyrazol-3-yl)-2-(4-(pyridin-2-yl)piperazin-1-yl)quinazolin-4-amine] the same measures were 184.4 to 186.7 °C and 310 nM.
The matching figures for `Fc1ccc(N2CCN(c3nc(Nc4cc(C5CC5)[nH]n4)c4cc(Cl)ccc4n3)CC2)cc1` [Compound 7i, 6-Chloro-N-(5-cyclopropyl-1H-pyrazol-3-yl)-2-(4-(4-fluorophenyl)piperazin-1-yl)quinazolin-4-amine]: 228.8 to 231 °C and 200 nM.
Consider `COc1cccc(Nc2nc(NCC3CCCO3)c3ccccc3n2)c1` (centres unmarked) [LCH-7749944, N^2-(3-methoxyphenyl)-N^4-((tetrahydrofuran-2-yl)methyl)quinazoline-2,4-diamine], for which, in data set [2], the “Effect on proliferation, migration, and invasion” value is reported as “effectively suppressed”.
Turning to `COc1ccnc(N2CCN(c3nc(Nc4cc(C5CC5)[nH]n4)c4cc(Cl)ccc4n3)CC2)c1` [Compound 8b, 6-Chloro-N-(5-cyclopropyl-1H-pyrazol-3-yl)-2-(4-(4-methoxypyridin-2-yl)piperazin-1-yl)quinazolin-4-amine], the melting point was in the range of 210.3 to 211.6 °C. In data set [1], it took 380 nM to reach half-maximal inhibition (IC50).
For `Cc1cnc(N2CCN(c3nc(Nc4cc(C5CC5)[nH]n4)c4cc(Cl)ccc4n3)CC2)nc1` [Compound 9b, 6-Chloro-N-(5-cyclopropyl-1H-pyrazol-3-yl)-2-(4-(5-methylpyrimidin-2-yl)piperazin-1-yl)quinazolin-4-amine] the same measures were 262.8 to 264.7 °C and 110 nM.
The matching figures for `Clc1ccc2nc(N3CCC(N4CCOCC4)CC3)nc(Nc3cc(C4CC4)[nH]n3)c2c1` [Compound 6b]: 214.3 to 216.6 °C and 560 nM.
The matching figures for `Clc1ccc2nc(N3CCN(c4ccc(Br)cc4)CC3)nc(Nc3cc(C4CC4)[nH]n3)c2c1` [Compound 7c, 2-(4-(4-Bromophenyl)piperazin-1-yl)-6-chloro-N-(5-cyclopropyl-1H-pyrazol-3-yl)quinazolin-4-amine]: 248.7 to 251.9 °C and 100 nM.
On to `Clc1ccc2nc(N3CCN(c4ccccc4)CC3)nc(Nc3cc(C4CC4)[nH]n3)c2c1` [Compound 7a, 6-Chloro-N-(5-cyclopropyl-1H-pyrazol-3-yl)-2-(4-phenylpiperazin-1-yl)quinazolin-4-amine], for which the melting point fell in the range of 239.5 to 240.8 °C. In data set [1], this compound returned an IC50 of 850 nM.
For `COc1cccc(N2CCN(c3nc(Nc4cc(C5CC5)[nH]n4)c4cc(Cl)ccc4n3)CC2)c1` [Compound 7h, 6-Chloro-N-(5-cyclopropyl-1H-pyrazol-3-yl)-2-(4-(3-methoxyphenyl)piperazin-1-yl)quinazolin-4-amine] the same measures were 199.9 to 201.8 °C and 690 nM.
`Clc1ccc2nc(N3CCN(c4ncc(Br)cn4)CC3)nc(Nc3cc(C4CC4)[nH]n3)c2c1` [Compound 9c, 2-(4-(5-Bromopyrimidin-2-yl)piperazin-1-yl)-6-chloro-N-(5-cyclopropyl-1H-pyrazol-3-yl)quinazolin-4-amine]: the melting point fell in the range of 280.6 to 282.7 °C. Also, the IC50 in data set [1] stood at 68 nM. In data set [3], the IC50 was 39300 nM and the “Activity against HT1080 (off-target check)” value is “negligible activity”. The compound also gave an IC50 in data set [4] of 4750 nM.
Compound `Clc1ccc(N2CCN(c3nc(Nc4cc(C5CC5)[nH]n4)c4cc(Cl)ccc4n3)CC2)cc1` [Compound 7e, 6-Chloro-2-(4-(4-chlorophenyl)piperazin-1-yl)-N-(5-cyclopropyl-1H-pyrazol-3-yl)quinazolin-4-amine] yielded a melting point of 250 to 251.8 °C. For the same compound, 160 nM corresponded to half-maximal inhibition in data set [1] (IC50).
The matching figures for `Clc1ccc2nc(N3CCC(N4CCCCC4)CC3)nc(Nc3cc(C4CC4)[nH]n3)c2c1` [Compound 6a, ([1,4′-Bipiperidin]-1′-yl)-6-chloro-N-(5-cyclopropyl-1H-pyrazol-3-yl)quinazolin-4-amine]: 208.3 to 209.6 °C and 440 nM.
The matching figures for `FC(F)(F)c1ccc(N2CCN(c3nc(Nc4cc(C5CC5)[nH]n4)c4cc(Cl)ccc4n3)CC2)nc1` [Compound 8e, 6-Chloro-N-(5-cyclopropyl-1H-pyrazol-3-yl)-2-(4-(5-(trifluoromethyl)pyridin-2-yl)piperazin-1-yl)quinazol-in-4-amine]: 247.6 to 259.6 °C and 220 nM.
The matching figures for `Clc1cccc(N2CCN(c3nc(Nc4cc(C5CC5)[nH]n4)c4cc(Cl)ccc4n3)CC2)c1` [Compound 7f, 6-Chloro-2-(4-(3-chlorophenyl)piperazin-1-yl)-N-(5-cyclopropyl-1H-pyrazol-3-yl)quinazolin-4-amine]: 229.9 to 232.6 °C and 490 nM.
For the compound `Clc1ccc2nc(N3CCN(c4ncccn4)CC3)nc(Nc3cc(C4CC4)[nH]n3)c2c1` [Compound 9a, 6-Chloro-N-(5-cyclopropyl-1H-pyrazol-3-yl)-2-(4-(pyrimidin-2-yl)piperazin-1-yl)quinazolin-4-amine], the melting point lay in the range of 249.3 to 250.5 °C. Moreover, in data set [1], the IC50 is 380 nM.
Turning to `Clc1ccc2nc(N3CCN(c4ccc(Br)cn4)CC3)nc(Nc3cc(C4CC4)[nH]n3)c2c1` [Compound 8d, 2-(4-(5-Bromopyridin-2-yl)piperazin-1-yl)-6-chloro-N-(5-cyclopropyl-1H-pyrazol-3-yl)quinazolin-4-amine], the melting point lay in the range of 270.5 to 272.8 °C. The IC50 in data set [1] turned out to be 60 nM. Moreover, in data set [3], the IC50 was 21500 nM and the “Activity against HT1080 (off-target check)” value was “negligible activity”. The IC50 in data set [4] turned out to be 4680 nM. In data set [5], the “Effect on cell invasion” value is “decreased the migration and invasion potential”. Also, the “Effect on cell migration” value in data set [6] was “decreased the migration and invasion potential”.
Compound `Cc1ccc(N2CCN(c3nc(Nc4cc(C5CC5)[nH]n4)c4cc(Cl)ccc4n3)CC2)nc1` [Compound 8c, 6-Chloro-N-(5-cyclopropyl-1H-pyrazol-3-yl)-2-(4-(5-methylpyridin-2-yl)piperazin-1-yl)quinazolin-4-amine] registered a melting point of 263 to 265.4 °C. Further, half-maximal inhibition in data set [1] (IC50) required 87 nM.
For the compound `COc1ccc(N2CCN(c3nc(Nc4cc(C5CC5)[nH]n4)c4cc(Cl)ccc4n3)CC2)cc1` [Compound 7g, 6-Chloro-N-(5-cyclopropyl-1H-pyrazol-3-yl)-2-(4-(4-methoxyphenyl)piperazin-1-yl)quinazolin-4-amine], the melting point lay within 237.1 to 239.5 °C. In data set [1], this compound gave an IC50 of 300 nM.
For the compound `Cc1ccc(N2CCN(c3nc(Nc4cc(C5CC5)[nH]n4)c4cc(Cl)ccc4n3)CC2)cc1` [Compound 7b, 6-Chloro-N-(5-cyclopropyl-1H-pyrazol-3-yl)-2-(4-(p-tolyl)piperazin-1-yl)quinazolin-4-amine], the melting point fell in the range of 204.9 to 207.5 °C. Further, in data set [1], the IC50 was 240 nM.
